# Measurements reported in US5736510A, “Antibiotics 10381v, w, x,y, z1, z2, pre-b and t” (priority 1996, dated 1998).
# Like-named read-outs stand apart in the source and are kept apart here.
# Key:
# Format in all cases: cell-based
# [1] = test system: S. ruminantium; settings: Table IV (separate study)
# [2] = test system: S. hyodysenteriae; set-up: unit not given here; settings: Table IV (separate study)
# Method: (§1) The assay measures the ability of a compound to inhibit the growth of certain types of anaerobic bacteria which normally inhabit the gut of poultry, swine or cattle.
# (§2) Two mg/ml solutions of the drugs to be tested are made in 10% v/v ethanol/water. This stock is then diluted to one mg per ml and then further diluted through a series of ten-two fold dilutions. At each concentration an aliquot is placed in a sterile petri plate. Nine volumes of molten agar are then added to each plate, mixed and allowed to harden at room temperature. These plates are then transferred to a Coy chamber and allowed to dry and equilibrate with the oxygen free atmosphere.
# (§3) Organisms used for MIC testing are inoculated into broth media, and incubated 18-24 h at 39° C. prior to use. The cultures are then diluted to equal the turbidity of a 0.5 MacFarland barium sulfate standard, except for the porcine isolates P108-3C1, P105-1C3 and P105-1C4 which are diluted 1:1. All inoculations and dilutions are performed in the anaerobic chamber using broth media and syringe transfer through the butyl robber stoppers.
# (§4) Freshly prepared and diluted cultures are loaded into the wells of a Steers replicator device. This apparatus can dispense ca 10 μl of each of 32 cultures onto the surface of the preincubated agar plates. One hour after the inoculation, the inoculum will have been absorbed and the plates are inverted and incubated at 38°-39° C. for 48 h. Plates are then removed from the chamber and the MIC for the test compounds determined. MIC's are reported as the lowest concentration of a compound which prevented detectable growth of a test organism on the agar plates. […] Thus, each set of test plates yields individual MIC values for each of the 32 test organisms.
# [3] = test system: S. faecalis; settings: Table IV (separate study)
# [4] = test system: M. elsdenii; settings: strain B159; Table IV (separate study)
# [5] = test system: B. fragilis; settings: strain UC9370; Table IV (separate study)
# [6] = test system: C. perfringens; set-up: Minimal Inhibitory Concentration (bioactivity data): unit not given here; settings: Table IV (separate study)
# [7] = test system: P. ruminicola; settings: strain 118B; Table IV (separate study)
# [8] = test system: F. necrophorum; settings: Table IV (separate study)
# [9] = test system: anaerobic bacteria which normally inhabit the gut of poultry, swine or cattle; experiment: in vitro MIC assay, overall comparison of components across the test organisms; settings: conclusion from Tables III and IV
# Method: as §1, §2, §3, §4
# [10] = test system: E. lentum; settings: strain L-34; Table IV (separate study)
# [11] = test system: R. flavefaciens; settings: Table IV (separate study)
# [12] = test system: S. bovis; settings: strain JB1; Table IV (separate study)
# [13] = test system: B. thetaiotaomicron; settings: strain UC9014; Table IV (separate study)
# Method: as §1, §2, §3, §4
# [14] = test system: R. amylophilus; settings: strain H18; Table IV (separate study)
# [15] = test system: L. multiparus; settings: strain 40; Table IV (separate study)
# [16] = test system: B. fibrisolvens; settings: Table IV (separate study)
smiles,measurement,setting,value
C=C(NC(=O)C(=C)NC(=O)C(=C)NC(=O)c1ccc2c(n1)-c1coc(n1)C(=C)NC(=O)C(=C)NC(=O)c1nc(oc1C)C(=CC)NC(=O)c1csc(n1)CNC(=O)c1nc(oc1C)C(=CC(C)O)NC(=O)C(C(C)O)NC(=O)c1csc-2n1)C(N)=O (stereo not drawn) [Antibiotic 10381pre-b],Minimal Inhibitory Concentration (bioactivity data),[1]; strain GA31,50.0
same,Minimal Inhibitory Concentration (bioactivity data),[1]; strain GA192,6.3
same,Minimal Inhibitory Concentration (bioactivity data),[2]; strain 16-4,> 100
same,Minimal Inhibitory Concentration (bioactivity data),[2]; strain B204,> 100
same,Minimal Inhibitory Concentration (bioactivity data),[3]; strain 71A01,> 100
same,Minimal Inhibitory Concentration (bioactivity data),[3]; strain CCS1-03,> 100
same,Minimal Inhibitory Concentration (bioactivity data),[3]; strain P1051C4,> 100
same,Minimal Inhibitory Concentration (bioactivity data),[4],> 100
same,Minimal Inhibitory Concentration (bioactivity data),[5],> 100
same,Minimal Inhibitory Concentration (bioactivity data),[6]; strain A82-1,> 100
same,Minimal Inhibitory Concentration (bioactivity data),[6]; strain A83-3,1.6
same,Minimal Inhibitory Concentration (bioactivity data),[6]; strain A83-RKP,1.6
same,Minimal Inhibitory Concentration (bioactivity data),[6]; strain CCS2-09,50.0
same,Minimal Inhibitory Concentration (bioactivity data),[6]; strain P1051C3,> 100
same,Minimal Inhibitory Concentration (bioactivity data),[6]; strain P1083C1,25.0
same,Minimal Inhibitory Concentration (bioactivity data),[6]; strain RF1B04,1.6
same,Minimal Inhibitory Concentration (bioactivity data),[6]; strain UC9452,25.0
same,Minimal Inhibitory Concentration (bioactivity data),[7],< 0.2
same,Minimal Inhibitory Concentration (bioactivity data),[8]; strain FN4070,> 100
same,Minimal Inhibitory Concentration (bioactivity data),[8]; strain FN5052,> 100
same,in vitro activity ranking of the individual components,[9],considerably less active
same,Minimal Inhibitory Concentration (bioactivity data),[10],< 0.2
same,Minimal Inhibitory Concentration (bioactivity data),[11]; strain C94,25.0
same,Minimal Inhibitory Concentration (bioactivity data),[11]; strain FD1,25.0
same,Minimal Inhibitory Concentration (bioactivity data),[12],50.0
same,Minimal Inhibitory Concentration (bioactivity data),[13],> 100
same,Minimal Inhibitory Concentration (bioactivity data),[14],> 100
same,Minimal Inhibitory Concentration (bioactivity data),[15],> 100
same,Minimal Inhibitory Concentration (bioactivity data),[16]; strain 49,50.0
same,Minimal Inhibitory Concentration (bioactivity data),[16]; strain D1,12.5
